The source of these data is ChEMBL document CHEMBL6074711, “Design, Synthesis, and Activity Evaluation of C-23-Modified 5-O-Mycaminosyltylonolide Derivatives” (ACS Med Chem Lett, 2024).

Common to all, as to format: functional
Conditions in all cases: time 16-20 hrs

Assay [1] has as its system Escherichia coli. The assay is described as follows: Antibacterial activity against Escherichia coli ATCC25922 incubated for 16 to 20 hrs by broth microdilution method.
Assay [2] concerns Staphylococcus aureus. The assay is described as follows: Antibacterial activity against Staphylococcus aureus ATCC25923 incubated for 16 to 20 hrs by broth microdilution method. (In general: In broth dilution the organism is exposed to a series of concentrations in liquid medium.)
For assay [3], the system named is Enterococcus faecalis. The assay is described as follows: Antibacterial activity against Enterococcus faecalis ATCC29212 incubated for 16 to 20 hrs by broth microdilution method.
The subject of assay [4] is Stenotrophomonas maltophilia. The assay is described as follows: Antibacterial activity against Stenotrophomonas maltophilia ATCC17808 incubated for 16 to 20 hrs by broth microdilution method.

Converted amounts (≈) assume the structure as drawn.

For orientation: MIC means the smallest concentration in the dilution series that meets the test's criterion for growth inhibition. `CC[C@H]1OC(=O)C[C@@H](O)[C@H](C)[C@@H](O[C@@H]2O[C@H](C)[C@@H](O)[C@H](N(C)C)[C@H]2O)[C@@H](CCNCc2cn(-c3cnc4ccccc4c3)nn2)C[C@@H](C)C(=O)/C=C/C(C)=C/[C@@H]1CNc1ccc(C)cc1`: the MIC was 2 µg/mL (≈ 2.23 µM) in assay [1], 2 µg/mL (≈ 2.23 µM) in assay [2], 2 µg/mL (≈ 2.23 µM) in assay [3] and 8 µg/mL (≈ 8.93 µM) in assay [4].
For `CC[C@H]1OC(=O)C[C@@H](O)[C@H](C)[C@@H](O[C@@H]2O[C@H](C)[C@@H](O)[C@H](N(C)C)[C@H]2O)[C@@H](CCNCc2cn(-c3cnc4ccccc4c3)nn2)C[C@@H](C)C(=O)/C=C/C(C)=C/[C@@H]1CN1CCCCCC1`, the MIC in assay [1] was 1 µg/mL (≈ 1.13 µM); in assay [2], 0.5 µg/mL (≈ 0.563 µM).
The matching figures for `CCCNC[C@H]1/C=C(C)/C=C/C(=O)[C@H](C)C[C@H](CCNCc2cn(-c3cnc4ccccc4c3)nn2)[C@H](O[C@@H]2O[C@H](C)[C@@H](O)[C@H](N(C)C)[C@H]2O)[C@@H](C)[C@H](O)CC(=O)O[C@@H]1CC`: 8 µg/mL (≈ 9.43 µM) and 1 µg/mL (≈ 1.18 µM).
With `CC[C@H]1OC(=O)C[C@@H](O)[C@H](C)[C@@H](O[C@@H]2O[C@H](C)[C@@H](O)[C@H](N(C)C)[C@H]2O)[C@@H](CCN(C)Cc2cn(-c3cnc4ccccc4c3)nn2)C[C@@H](C)C(=O)/C=C/C(C)=C/[C@@H]1CN(Cc1ccccc1)C(C)C`, the minimal inhibitory concentration (MIC) was found to be 16 µg/mL (≈ 16.8 µM) in assay [1], 8 µg/mL (≈ 8.4 µM) in assay [2], 16 µg/mL (≈ 16.8 µM) in assay [3] and 8 µg/mL (≈ 8.4 µM) in assay [4].
Consider `CC[C@H]1OC(=O)C[C@@H](O)[C@H](C)[C@@H](O[C@@H]2O[C@H](C)[C@@H](O)[C@H](N(C)C)[C@H]2O)[C@@H](CCN(Cc2cn(-c3cnc4ccccc4c3)nn2)c2ccccc2)C[C@@H](C)C(=O)/C=C/C(C)=C/[C@@H]1CI`, for which the minimal inhibitory concentration (MIC) in assay [1] was determined as 32 µg/mL (≈ 32.2 µM); in assay [2], 2 µg/mL (≈ 2.01 µM).
For `CC[C@H]1OC(=O)C[C@@H](O)[C@H](C)[C@@H](O[C@@H]2O[C@H](C)[C@@H](O)[C@H](N(C)C)[C@H]2O)[C@@H](CCNCc2cn(-c3cnc4ccccc4c3)nn2)C[C@@H](C)C(=O)/C=C/C(C)=C/[C@@H]1CN(C)CC` the same measures were 4 µg/mL (≈ 4.72 µM) and 0.5 µg/mL (≈ 0.59 µM).
`CC[C@H]1OC(=O)C[C@@H](O)[C@H](C)[C@@H](O[C@@H]2O[C@H](C)[C@@H](O)[C@H](N(C)C)[C@H]2O)[C@@H](CCN(C)Cc2cn(-c3cnc4ccccc4c3)nn2)C[C@@H](C)C(=O)/C=C/C(C)=C/[C@@H]1CN1CCCc2ccccc21`: the MIC turned out to be 2 µg/mL (≈ 2.14 µM) in assay [1], 2 µg/mL (≈ 2.14 µM) in assay [2], 2 µg/mL (≈ 2.14 µM) in assay [3] and 4 µg/mL (≈ 4.27 µM) in assay [4].
`CC[C@H]1OC(=O)C[C@@H](O)[C@H](C)[C@@H](O[C@@H]2O[C@H](C)[C@@H](O)[C@H](N(C)C)[C@H]2O)[C@@H](CCNCc2cn(-c3cnc4ccccc4c3)nn2)C[C@@H](C)C(=O)/C=C/C(C)=C/[C@@H]1CNc1ccc(Br)cc1`: the minimum inhibitory concentration (MIC) in assay [1] worked out at 1 µg/mL (≈ 1.04 µM); in assay [2], 2 µg/mL (≈ 2.08 µM); in assay [3], 2 µg/mL (≈ 2.08 µM); in assay [4] it was 1 µg/mL (≈ 1.04 µM).
In the case of `CC[C@H]1OC(=O)C[C@@H](O)[C@H](C)[C@@H](O[C@@H]2O[C@H](C)[C@@H](O)[C@H](N(C)C)[C@H]2O)[C@@H](CCN(Cc2cn(-c3cnc4ccccc4c3)nn2)c2ccccc2)C[C@@H](C)C(=O)/C=C/C(C)=C/[C@@H]1CN(C)C(C)C`, the values for the minimum inhibitory concentration (MIC) in assay [1] and in assay [2] were 8 µg/mL (≈ 8.53 µM) and 0.5 µg/mL (≈ 0.533 µM), respectively.
For `CCCN(C)C[C@H]1/C=C(C)/C=C/C(=O)[C@H](C)C[C@H](CCN(Cc2cn(-c3cnc4ccccc4c3)nn2)c2ccccc2)[C@H](O[C@@H]2O[C@H](C)[C@@H](O)[C@H](N(C)C)[C@H]2O)[C@@H](C)[C@H](O)CC(=O)O[C@@H]1CC` the same measures were 4 µg/mL (≈ 4.26 µM) and 0.5 µg/mL (≈ 0.533 µM).
The matching figures for `CC[C@H]1OC(=O)C[C@@H](O)[C@H](C)[C@@H](O[C@@H]2O[C@H](C)[C@@H](O)[C@H](N(C)C)[C@H]2O)[C@@H](CCNCc2cn(-c3cnc4ccccc4c3)nn2)C[C@@H](C)C(=O)/C=C/C(C)=C/[C@@H]1CN1CCCCCCC1`: 2 µg/mL (≈ 2.22 µM) and 0.5 µg/mL (≈ 0.554 µM).
The matching figures for `CCCNC[C@H]1/C=C(C)/C=C/C(=O)[C@H](C)C[C@H](CCN(C)Cc2cn(-c3cnc4ccccc4c3)nn2)[C@H](O[C@@H]2O[C@H](C)[C@@H](O)[C@H](N(C)C)[C@H]2O)[C@@H](C)[C@H](O)CC(=O)O[C@@H]1CC`: 8 µg/mL (≈ 9.28 µM) and 2 µg/mL (≈ 2.32 µM).
For the compound `CC[C@H]1OC(=O)C[C@@H](O)[C@H](C)[C@@H](O[C@@H]2O[C@H](C)[C@@H](O)[C@H](N(C)C)[C@H]2O)[C@@H](CCNCc2cn(-c3cnc4ccccc4c3)nn2)C[C@@H](C)C(=O)/C=C/C(C)=C/[C@@H]1CO`, the MIC stood at 4 µg/mL (≈ 4.96 µM) in assay [1] and 0.25 µg/mL (≈ 0.31 µM) in assay [2].
For `CC[C@H]1OC(=O)C[C@@H](O)[C@H](C)[C@@H](O[C@@H]2O[C@H](C)[C@@H](O)[C@H](N(C)C)[C@H]2O)[C@@H](CCNCc2cn(-c3cnc4ccccc4c3)nn2)C[C@@H](C)C(=O)/C=C/C(C)=C/[C@@H]1CN(CC)CC` the same measures were 2 µg/mL (≈ 2.32 µM) and 0.5 µg/mL (≈ 0.58 µM).
For `CC[C@H]1OC(=O)C[C@@H](O)[C@H](C)[C@@H](O[C@@H]2O[C@H](C)[C@@H](O)[C@H](N(C)C)[C@H]2O)[C@@H](CCN(Cc2cn(-c3cnc4ccccc4c3)nn2)c2ccccc2)C[C@@H](C)C(=O)/C=C/C(C)=C/[C@@H]1CN(C)C1CCCCC1` the same measures were 4 µg/mL (≈ 4.09 µM) and 0.5 µg/mL (≈ 0.511 µM).
For `CC[C@H]1OC(=O)C[C@@H](O)[C@H](C)[C@@H](O[C@@H]2O[C@H](C)[C@@H](O)[C@H](N(C)C)[C@H]2O)[C@@H](CCNCc2cn(-c3cnc4ccccc4c3)nn2)C[C@@H](C)C(=O)/C=C/C(C)=C/[C@@H]1CN(C)C1CCCCC1` the same measures were 2 µg/mL (≈ 2.22 µM) and 1 µg/mL (≈ 1.11 µM).
As for `CC[C@H]1OC(=O)C[C@@H](O)[C@H](C)[C@@H](O[C@@H]2O[C@H](C)[C@@H](O)[C@H](N(C)C)[C@H]2O)[C@@H](CCNCc2cn(-c3cnc4ccccc4c3)nn2)C[C@@H](C)C(=O)/C=C/C(C)=C/[C@@H]1CN1CCCCC1`, the values for the MIC in assay [1] and in assay [2] were 2 µg/mL (≈ 2.29 µM) and 0.5 µg/mL (≈ 0.572 µM), respectively.
For `CC[C@H]1OC(=O)C[C@@H](O)[C@H](C)[C@@H](O[C@@H]2O[C@H](C)[C@@H](O)[C@H](N(C)C)[C@H]2O)[C@@H](CCN(C)Cc2cn(-c3cnc4ccccc4c3)nn2)C[C@@H](C)C(=O)/C=C/C(C)=C/[C@@H]1CN(C)C1CCCCC1`, the minimal inhibitory concentration (MIC) in assay [1] is 4 µg/mL (≈ 4.37 µM); in assay [2], 1 µg/mL (≈ 1.09 µM).
Turning to `CC[C@H]1OC(=O)C[C@@H](O)[C@H](C)[C@@H](O[C@@H]2O[C@H](C)[C@@H](O)[C@H](N(C)C)[C@H]2O)[C@@H](CCNCc2cn(-c3cnc4ccccc4c3)nn2)C[C@@H](C)C(=O)/C=C/C(C)=C/[C@@H]1CN(C)C(C)C`, the minimal inhibitory concentration (MIC) was 2 µg/mL (≈ 2.32 µM) in assay [1] and 0.5 µg/mL (≈ 0.58 µM) in assay [2].
For `CCCNC[C@H]1/C=C(C)/C=C/C(=O)[C@H](C)C[C@H](CCN(Cc2cn(-c3cnc4ccccc4c3)nn2)c2ccccc2)[C@H](O[C@@H]2O[C@H](C)[C@@H](O)[C@H](N(C)C)[C@H]2O)[C@@H](C)[C@H](O)CC(=O)O[C@@H]1CC`, the MIC in assay [1] worked out at 8 µg/mL (≈ 8.66 µM); in assay [2] it was 2 µg/mL (≈ 2.16 µM).
For `CCCCN(CCCC)C[C@H]1/C=C(C)/C=C/C(=O)[C@H](C)C[C@H](CCNCc2cn(-c3cnc4ccccc4c3)nn2)[C@H](O[C@@H]2O[C@H](C)[C@@H](O)[C@H](N(C)C)[C@H]2O)[C@@H](C)[C@H](O)CC(=O)O[C@@H]1CC` the same measures were 8 µg/mL (≈ 8.71 µM) and 2 µg/mL (≈ 2.18 µM).
As to `CC[C@H]1OC(=O)C[C@@H](O)[C@H](C)[C@@H](O[C@@H]2O[C@H](C)[C@@H](O)[C@H](N(C)C)[C@H]2O)[C@@H](CCN(Cc2cn(-c3cnc4ccccc4c3)nn2)c2ccccc2)C[C@@H](C)C(=O)/C=C/C(C)=C/[C@@H]1CN(C)CC`, the MIC in assay [1] worked out at 2 µg/mL (≈ 2.16 µM); in assay [2], 0.5 µg/mL (≈ 0.541 µM).
Take `CCCN(C)C[C@H]1/C=C(C)/C=C/C(=O)[C@H](C)C[C@H](CCNCc2cn(-c3cnc4ccccc4c3)nn2)[C@H](O[C@@H]2O[C@H](C)[C@@H](O)[C@H](N(C)C)[C@H]2O)[C@@H](C)[C@H](O)CC(=O)O[C@@H]1CC`: the minimal inhibitory concentration (MIC) in assay [1] was 4 µg/mL (≈ 4.64 µM); in assay [2], 0.5 µg/mL (≈ 0.58 µM).
For `CC[C@H]1OC(=O)C[C@@H](O)[C@H](C)[C@@H](O[C@@H]2O[C@H](C)[C@@H](O)[C@H](N(C)C)[C@H]2O)[C@@H](CCN(C)Cc2cn(-c3cnc4ccccc4c3)nn2)C[C@@H](C)C(=O)/C=C/C(C)=C/[C@@H]1CO` the same measures were 4 µg/mL (≈ 4.87 µM) and 1 µg/mL (≈ 1.22 µM).
The matching figures for `CC[C@H]1OC(=O)C[C@@H](O)[C@H](C)[C@@H](O[C@@H]2O[C@H](C)[C@@H](O)[C@H](N(C)C)[C@H]2O)[C@@H](CCN(Cc2cn(-c3cnc4ccccc4c3)nn2)c2ccccc2)C[C@@H](C)C(=O)/C=C/C(C)=C/[C@@H]1CNCc1ccccc1`: 8 µg/mL (≈ 8.23 µM) and 4 µg/mL (≈ 4.11 µM).
For `CC[C@H]1OC(=O)C[C@@H](O)[C@H](C)[C@@H](O[C@@H]2O[C@H](C)[C@@H](O)[C@H](N(C)C)[C@H]2O)[C@@H](CCNCc2cn(-c3cnc4ccccc4c3)nn2)C[C@@H](C)C(=O)/C=C/C(C)=C/[C@@H]1CN(C)C` the same measures were 2 µg/mL (≈ 2.4 µM) and 0.5 µg/mL (≈ 0.599 µM).
In the case of `CC[C@H]1OC(=O)C[C@@H](O)[C@H](C)[C@@H](O[C@@H]2O[C@H](C)[C@@H](O)[C@H](N(C)C)[C@H]2O)[C@@H](CCNCc2cn(-c3cnc4ccccc4c3)nn2)C[C@@H](C)C(=O)/C=C/C(C)=C/[C@@H]1CI`, the minimal inhibitory concentration (MIC) came out at 8 µg/mL (≈ 8.73 µM) in assay [1] and 2 µg/mL (≈ 2.18 µM) in assay [2].
For the compound `CC[C@H]1OC(=O)C[C@@H](O)[C@H](C)[C@@H](O[C@@H]2O[C@H](C)[C@@H](O)[C@H](N(C)C)[C@H]2O)[C@@H](CCN(C)Cc2cn(-c3cnc4ccccc4c3)nn2)C[C@@H](C)C(=O)/C=C/C(C)=C/[C@@H]1CI`, the MIC in assay [1] was 16 µg/mL (≈ 17.2 µM); in assay [2], 2 µg/mL (≈ 2.15 µM).
For the compound `CCCCN(CCCC)C[C@H]1/C=C(C)/C=C/C(=O)[C@H](C)C[C@H](CCN(Cc2cn(-c3cnc4ccccc4c3)nn2)c2ccccc2)[C@H](O[C@@H]2O[C@H](C)[C@@H](O)[C@H](N(C)C)[C@H]2O)[C@@H](C)[C@H](O)CC(=O)O[C@@H]1CC`, the MIC in assay [1] amounted to 32 µg/mL (≈ 32.2 µM); in assay [2], 1 µg/mL (≈ 1.01 µM).
